According to publication PMC11091072, “Targeting bacterial nickel transport with aspergillomarasmine A suppresses virulence-associated Ni-dependent enzymes” (Nature Communications, 2024):
Values joined by “and” are separate entries in the source; they are usually repeats but may differ in a detail not shown here. Equal values may be shown once. Read-outs that look alike come from different tables or passages of the source.

Tests used:
[1] = system: K. pneumoniae urease activity (whole cell); experiment: microbe, parasite or virus in culture; assay type: cell-based, Klebsiella pneumoniae ATCC 33495; conditions: artificial urine; for K. pneumoniae urease-dependent pH change (pH): 37 °C
[2] = system: S. aureus urease activity (whole cell); assay type: cell-based, Staphylococcus aureus; conditions: artificial urine, 24 h; for Staphylococcus aureus urease-dependent pH change (pH): 37 °C
[3] = system: struvite crystallization in K. pneumoniae cultures; experiment: Struvite crystal nucleation in artificial urine cultures; assay type: cell-based, Klebsiella pneumoniae
From the text: A The metal complexed structure, selectivity, and affinity of AMA. The constituents of AMA are labeled L-aspartate (L-Asp) and 2,3-diaminopropionic acid (APA). B Dose-response urease inhibition assays in K. pneumoniae. […] C Dose-response effect of AMA and Zn-AMA on the nucleation of struvite crystals in K. pneumoniae cultures grown in artificial urine. Crystals were examined microscopically in 96-well plates and visually quantified. […] The data represent the representative mean of two replicates. D Quantification of planktonic growth and crystal violet-stained biofilms of K. pneumoniae grown in artificial urine and varying concentrations of Zn-AMA. […] Data represent mean ± s.d. of four technical replicates. E ICP-MS quantification of cellular ^60Ni and ^66Zn content in K. pneumoniae untreated or treated with 200 μM AMA, or Zn-AMA. […] Whole-cell hydrogenase assays were performed by adding benzyl viologen (BV) at a final concentration of 1 mg/mL and monitoring its reduction at an absorbance of 630 nm. Data represent the mean of two technical replicates.
FIG S5 Microscopic detection of struvite crystals grown in artificial urine cultures of K. pneumoniae. Top row, the concentration-dependent effect of AMA on struvite formation. Bottom row, the concentration-dependent effect of Zn-AMA on struvite formation.
Bacteria were grown in 96 well flat-bottom plates for 24h at 37 °C. Brightfield micrographs were taken with a BioTek Cytation cell imaging reader at 4x magnification. Four images were taken per well and were digitally stitched to generate whole-well images. […]

[4] = system: cellular Ni and Zn content of K. pneumoniae; experiment: Cellular metal analysis by ICP-MS (60Ni, 66Zn); assay type: cell-based, Klebsiella pneumoniae
Protocol: The cellular Zn^2+ and Ni^2+ content of K. pneumoniae was carried out according to the method described by Maunders et al.[66] with some modifications. An overnight culture of K. pneumoniae was diluted 1/200 in LB medium (5 mL) and was either untreated or treated with 0.2 mM AMA or Zn-AMA. The cells were grown for 16 h at 37 °C, harvested by centrifugation, and washed twice with PBS containing 5 mM EDTA and twice with ultra-pure water. The cell pellet was subsequently digested in 0.25 mL 65% HNO3 at 80 °C for 30 minutes in borosilicate glass tubes using a water bath. The samples were diluted to 2% HNO3 and filtered through a 0.45 μm syringe filter. ^60Ni and ^66Zn were quantified using a Thermo iCAP Q ICP-MS.

urease = biological target: T1, urease (Klebsiella pneumoniae subsp. pneumoniae, UniProt A6TE40+A6TE41+A6TE42); experiment: Urease activity in cell-free extracts (NH3 release, indophenol-hypochlorite); assay type: biochemical
T1 construct: endogenous in cells; host or cells: Klebsiella pneumoniae (ATCC 33495), sonicated and cleared lysate
Protocol: The cells were subsequently lysed by sonication, and cell debris was removed with centrifugation (20,000 × g, 10 min). […] Liberated NH3 was quantified using the indophenol-hypocholorite reaction as previously described. The total amount of protein was quantified by Bradford assay using bovine serum albumin as standard. Each assay was performed in duplicate wells.
FIG S7 Evaluation of Zn-AMA as a direct inhibitor of urease. A) Checkerboard analysis of Zn-AMA and AHA on urease activity of K. […]
Dose- […]
response curves of fluorofamide, Zn-AMA, and AMA inhibiting the urease-catalyzed release of NH3 quantified with indophenol hypochlorite. The rates of NH3 production were measured over 20 min and were normalized to total protein concentration. Experiments were performed in duplicate. Individual replicates are shown as colored circles.

S. aureus = assay type: cell-based, Staphylococcus aureus; conditions: 200 μM, 24 h
HEK293 cells = experiment: HEK293 cytotoxicity assay (Cell Titer Glo 2.0)
[5] = K. pneumoniae treated with 200 μM

T1 sequence (A6TE41 whole entry): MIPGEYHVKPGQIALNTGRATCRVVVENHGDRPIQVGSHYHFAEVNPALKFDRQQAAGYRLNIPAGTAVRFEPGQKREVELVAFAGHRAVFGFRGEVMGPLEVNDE
T1 sequence (A6TE40 whole entry): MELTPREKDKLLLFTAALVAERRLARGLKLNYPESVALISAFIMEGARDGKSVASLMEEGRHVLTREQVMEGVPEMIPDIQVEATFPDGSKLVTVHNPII
T1 sequence (A6TE42 whole entry): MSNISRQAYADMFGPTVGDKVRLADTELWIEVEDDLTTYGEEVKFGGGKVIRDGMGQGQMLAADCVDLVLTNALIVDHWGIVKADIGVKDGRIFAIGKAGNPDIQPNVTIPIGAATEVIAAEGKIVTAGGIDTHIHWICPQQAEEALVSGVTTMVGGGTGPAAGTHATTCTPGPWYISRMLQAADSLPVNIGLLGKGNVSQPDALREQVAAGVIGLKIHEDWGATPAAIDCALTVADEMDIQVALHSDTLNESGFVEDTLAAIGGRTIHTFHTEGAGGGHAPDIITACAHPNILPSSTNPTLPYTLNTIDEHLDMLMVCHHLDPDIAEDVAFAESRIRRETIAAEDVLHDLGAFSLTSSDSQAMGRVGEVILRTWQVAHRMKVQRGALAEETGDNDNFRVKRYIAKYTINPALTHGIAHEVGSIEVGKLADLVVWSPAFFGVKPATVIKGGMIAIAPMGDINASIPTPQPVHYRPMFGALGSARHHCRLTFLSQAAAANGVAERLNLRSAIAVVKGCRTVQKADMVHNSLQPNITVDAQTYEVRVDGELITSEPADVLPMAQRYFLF

Question: Which “K. pneumoniae urease-dependent pH change (pH)” value ([1]; 0.19 μM, 24 h) does the source give for `N[C@@H](CN[C@@H](CN[C@@H](CC(=O)O)C(=O)O)C(=O)O)C(=O)O.[Zn+2]` [Zn-AMA] here?
Answer: 8.14 and 8.10

Question: And the “K. pneumoniae urease-dependent pH change (pH)” value ([1]; 0.39 μM, 24 h)?
Answer: 8.08 and 8.00

Question: And the “K. pneumoniae urease-dependent pH change (pH)” value ([1]; 0.78 μM, 24 h)?
Answer: 7.84 and 7.81

Question: And the “K. pneumoniae urease-dependent pH change (pH)” value ([1]; 1.56 μM, 24 h)?
Answer: 7.60 and 7.55

Question: And the “K. pneumoniae urease-dependent pH change (pH)” value ([1]; 3.12 μM, 24 h)?
Answer: 7.41 and 7.27

Question: And the “K. pneumoniae urease-dependent pH change (pH)” value ([1]; 6.25 μM, 24 h)?
Answer: 7.11

Question: What about the “K. pneumoniae urease-dependent pH change (pH)” value ([1]; 12.5 μM, 24 h) of the same compound?
Answer: 6.87 and 6.85

Question: And the “K. pneumoniae urease-dependent pH change (pH)” value ([1]; 25 μM, 24 h)?
Answer: 6.76 and 6.71

Question: What about the “K. pneumoniae urease-dependent pH change (pH)” value ([1]; 50 μM, 24 h) of the same compound?
Answer: 6.66 and 6.60

Question: What about the “K. pneumoniae urease-dependent pH change (pH)” value ([1]; 100 μM, 24 h) of the same compound?
Answer: 6.65 and 6.54

Question: And the “K. pneumoniae urease-dependent pH change (pH)” value ([1]; 200 μM, 24 h)?
Answer: 6.80 and 6.56

Question: What about the “concentration that significantly suppressed urease activity” value ([1]; K. pneumoniae, 24 h) of the same compound?
Answer: 50 µM

Question: What about the EC50 ([1]; Klebsiella pneumoniae, K. pneumoniae, read-out: EC50, half-maximal effective concentration required to suppress urease-dependent pH change) of the same compound?
Answer: 2.5 ± 0.4 µM

Question: And the “Staphylococcus aureus urease-dependent pH change (pH)” value ([2]; 0.19 μM)?
Answer: 7.24 and 7.25

Question: And the “Staphylococcus aureus urease-dependent pH change (pH)” value ([2]; 0.39 μM)?
Answer: 7.28 and 7.12

Question: What about the “Staphylococcus aureus urease-dependent pH change (pH)” value ([2]; 0.78 μM) of the same compound?
Answer: 6.95 and 7.00

Question: And the “Staphylococcus aureus urease-dependent pH change (pH)” value ([2]; 1.56 μM)?
Answer: 6.76 and 6.81

Question: And the “Staphylococcus aureus urease-dependent pH change (pH)” value ([2]; 3.12 μM)?
Answer: 6.56 and 6.59

Question: What about the “Staphylococcus aureus urease-dependent pH change (pH)” value ([2]; 6.25 μM) of the same compound?
Answer: 6.45 and 6.49

Question: And the “Staphylococcus aureus urease-dependent pH change (pH)” value ([2]; 12.5 μM)?
Answer: 6.41 and 6.45

Question: What about the “Staphylococcus aureus urease-dependent pH change (pH)” value ([2]; 25 μM) of the same compound?
Answer: 6.38 and 6.40

Question: And the “Staphylococcus aureus urease-dependent pH change (pH)” value ([2]; 50 μM)?
Answer: 6.39 and 6.40

Question: What about the “Staphylococcus aureus urease-dependent pH change (pH)” value ([2]; 100 μM) of the same compound?
Answer: 6.37 and 6.40

Question: What about the “Staphylococcus aureus urease-dependent pH change (pH)” value ([2]; 200 μM) of the same compound?
Answer: 6.41 and 6.39

Question: And the “effect on urease activity” value ([2]; S. aureus)?
Answer: inhibited urease activity similarly

Question: What about the “Struvite crystal quantification (count)” value ([3]; 3.12 μM) of the same compound?
Answer: 25 and 43

Question: What about the “Struvite crystal quantification (count)” value ([3]; 6.25 μM) of the same compound?
Answer: 42 and 62

Question: And the “Struvite crystal quantification (count)” value ([3]; 12 μM)?
Answer: 48 and 82

Question: What about the “Struvite crystal quantification (count)” value ([3]; 50 μM) of the same compound?
Answer: 0

Question: What about the “Struvite crystal quantification (count)” value ([3]; 100 μM) of the same compound?
Answer: 0

Question: And the “Struvite crystal quantification (count)” value ([3]; 200 μM)?
Answer: 0

Question: What about the “effect on struvite crystals” value ([3]; K. pneumoniae, artificial urine) of the same compound?
Answer: robustly prevented the appearance of struvite crystals

Question: What about the “effect on intracellular Ni^2+ levels” value ([4]; 200 μM, ICP-MS) of the same compound?
Answer: reduced intracellular Ni^2+ levels

Question: What about the “effect on intracellular Zn^2+ levels” value ([4]; 200 μM, ICP-MS) of the same compound?
Answer: without affecting Zn^2+ levels

Question: What about the “ICP-MS cellular Ni” value [4, 5] of the same compound?
Answer: 2.15 µM and 2.37 µM

Question: What about the “ICP-MS cellular Zn” value [4, 5] of the same compound?
Answer: 0.81 µM and 0.97 µM

Question: What about the “Specific activity (cell-free indophenol urease assay)” value (urease; Zn-AMA 0.007813 mM) of the same compound?
Answer: 45.30 nmol/min/mg and 43.25 nmol/min/mg

Question: What about the “Specific activity (cell-free indophenol urease assay)” value (urease; Zn-AMA 0.015625 mM) of the same compound?
Answer: 43.59 nmol/min/mg and 42.05 nmol/min/mg

Question: And the “Specific activity (cell-free indophenol urease assay)” value (urease; Zn-AMA 0.03125 mM)?
Answer: 42.91 nmol/min/mg and 40.51 nmol/min/mg

Question: What about the “Specific activity (cell-free indophenol urease assay)” value (urease; Zn-AMA 0.0625 mM) of the same compound?
Answer: 42.56 nmol/min/mg and 39.66 nmol/min/mg

Question: What about the “Specific activity (cell-free indophenol urease assay)” value (urease; Zn-AMA 0.125 mM) of the same compound?
Answer: 42.39 nmol/min/mg and 39.32 nmol/min/mg

Question: And the “Specific activity (cell-free indophenol urease assay)” value (urease; Zn-AMA 0.25 mM)?
Answer: 39.32 nmol/min/mg and 37.78 nmol/min/mg

Question: And the “Specific activity (cell-free indophenol urease assay)” value (urease; Zn-AMA 0.5 mM)?
Answer: 36.07 nmol/min/mg and 34.19 nmol/min/mg

Question: What about the “Specific activity (cell-free indophenol urease assay)” value (urease; Zn-AMA 1 mM) of the same compound?
Answer: 31.28 nmol/min/mg and 28.03 nmol/min/mg

Question: And the “direct inhibition of urease” value (urease; cell-free extract)?
Answer: excluded the direct inhibition of urease

Question: And the “bacterial viability (spot dilutions)” value (S. aureus)?
Answer: not lethal to bacteria

Question: And the “cytotoxicity toward HEK293” value (HEK293 cells; 48 h, up to 512 μg/mL (~1.4 mM))?
Answer: no significant cytotoxicity

Question: What about the IC50 (HEK293 cells; Homo sapiens, HEK293, 48 h, read-out: IC50 (HEK293 viability)) of the same compound?
Answer: > 512 µg/mL

Question: What about the “HEK 293T cytotoxicity assay raw signal” value (HEK293 cells; Zn-AMA 0.5 μg/mL) of the same compound?
Answer: 787289 and 688554 and 688484

Question: What about the “HEK 293T cytotoxicity assay raw signal” value (HEK293 cells; Zn-AMA 1 μg/mL) of the same compound?
Answer: 778862 and 676746 and 680280

Question: What about the “HEK 293T cytotoxicity assay raw signal” value (HEK293 cells; Zn-AMA 2 μg/mL) of the same compound?
Answer: 730695 and 661495 and 777158

Question: And the “HEK 293T cytotoxicity assay raw signal” value (HEK293 cells; Zn-AMA 4 μg/mL)?
Answer: 783723 and 676080 and 794996

Question: What about the “HEK 293T cytotoxicity assay raw signal” value (HEK293 cells; Zn-AMA 8 μg/mL) of the same compound?
Answer: 742661 and 700936 and 674120

Question: What about the “HEK 293T cytotoxicity assay raw signal” value (HEK293 cells; Zn-AMA 16 μg/mL) of the same compound?
Answer: 815769 and 690170 and 672316

Question: And the “HEK 293T cytotoxicity assay raw signal” value (HEK293 cells; Zn-AMA 32 μg/mL)?
Answer: 682089 and 773769 and 699603

Question: And the “HEK 293T cytotoxicity assay raw signal” value (HEK293 cells; Zn-AMA 64 μg/mL)?
Answer: 773018 and 718789 and 808685

Question: And the “HEK 293T cytotoxicity assay raw signal” value (HEK293 cells; Zn-AMA 128 μg/mL)?
Answer: 636555 and 716494 and 658016

Question: What about the “HEK 293T cytotoxicity assay raw signal” value (HEK293 cells; Zn-AMA 256 μg/mL) of the same compound?
Answer: 744022 and 626132 and 622056

Question: And the “HEK 293T cytotoxicity assay raw signal” value (HEK293 cells; Zn-AMA 512 μg/mL)?
Answer: 618617 and 604431 and 563165
